In patent US20220106289A1, “NLRP3 INHIBITORS” (INFLAZOME LIMITED, priority 2018, published 2022):
Counter-ions that a name gives are not always drawn.

Molecular target: NLRP3 (Homo sapiens, UniProt Q96P20)
Test: THP-1 cells pyroptosis assay (LPS + nigericin, resazurin read-out)
Assay type: cell-based
Set-up: Seed THP-1 cells (25,000 cells/well) containing 1.0 μg/ml LPS; host or cells: THP-1 cells
Conditions: NLRP3 inhibitory activity, 1 μg/ml LPS, 5 μM nigericin
Method: The cells were routinely passaged and grown to confluency (˜10^6 cells/ml). On the day of the experiment, THP-1 cells were harvested and resuspended into RPMI medium (without FBS). The cells were then counted and viability (>90%) checked by Trypan blue (Sigma #T8154). […] To this diluted cell solution was added LPS (Sigma #L4524) to give a 1 μg/ml Final Assay Concentration (FAC). 40 μl of the final preparation was aliquoted into each well of a 96-well plate. The plate thus prepared was used for compound screening. The following method step-by-step assay was followed for compound screening. • 1. […] Incubate for 3 hrs at 37° C., 5% CO2 • 4. Add 5 μl nigericin (Sigma #N7143) (FAC 5 μM) to all wells • 5. Incubate for 1 hr at 37° C., 5% CO2 • 6. At the end of the incubation period, spin plates at 300×g for 3 mins and remove supernatant • 7. Then add 50 μl of resazurin (Sigma #R7017) (FAC 100 μM resazurin in RPMI medium without FBS) and incubate plates for a further 1-2 hrs at 37° C. and 5% CO2 • 8.

Sequence of NLRP3 (Q96P20 whole entry): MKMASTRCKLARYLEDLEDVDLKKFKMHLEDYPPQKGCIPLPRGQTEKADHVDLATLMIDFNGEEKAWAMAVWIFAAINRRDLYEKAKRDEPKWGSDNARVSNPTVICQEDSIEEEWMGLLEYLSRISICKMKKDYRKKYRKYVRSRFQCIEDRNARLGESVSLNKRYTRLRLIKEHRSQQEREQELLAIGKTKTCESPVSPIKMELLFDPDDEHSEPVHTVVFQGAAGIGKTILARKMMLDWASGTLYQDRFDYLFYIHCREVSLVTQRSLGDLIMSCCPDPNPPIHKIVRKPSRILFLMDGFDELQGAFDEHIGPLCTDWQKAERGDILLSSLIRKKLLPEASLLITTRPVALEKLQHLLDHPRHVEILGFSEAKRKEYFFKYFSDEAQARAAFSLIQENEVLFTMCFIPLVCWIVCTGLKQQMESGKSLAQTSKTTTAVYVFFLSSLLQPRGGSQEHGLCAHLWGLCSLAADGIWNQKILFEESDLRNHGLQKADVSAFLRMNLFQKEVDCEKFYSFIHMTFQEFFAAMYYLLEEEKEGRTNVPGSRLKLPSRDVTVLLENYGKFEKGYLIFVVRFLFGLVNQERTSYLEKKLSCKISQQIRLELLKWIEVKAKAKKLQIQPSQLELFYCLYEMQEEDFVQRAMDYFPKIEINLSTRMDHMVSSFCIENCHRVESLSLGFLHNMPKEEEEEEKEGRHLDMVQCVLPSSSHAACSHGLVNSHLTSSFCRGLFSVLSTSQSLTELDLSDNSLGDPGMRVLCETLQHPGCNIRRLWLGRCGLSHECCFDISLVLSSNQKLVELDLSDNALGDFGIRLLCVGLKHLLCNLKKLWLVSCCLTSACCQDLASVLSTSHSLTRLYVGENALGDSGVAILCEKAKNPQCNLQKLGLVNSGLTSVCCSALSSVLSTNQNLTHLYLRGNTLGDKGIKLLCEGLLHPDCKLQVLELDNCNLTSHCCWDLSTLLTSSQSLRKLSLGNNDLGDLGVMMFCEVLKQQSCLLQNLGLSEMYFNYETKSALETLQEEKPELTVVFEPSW

| SMILES | IC50 |
| --- | --- |
| CC(C)c1cccc(C(C)C)c1NC(=O)NS(=O)(=O)c1ccn(C(C)C)n1 [Example 68, N-((2,6-Diisopropylphenyl)carbamoyl)-1-isopropyl-1H-pyrazole-3-sulfonamide, sodium salt] | 1 to 5 µM |
| CC(C)n1ccc(S(=O)(=O)NC(=O)Nc2c3c(c(C#N)c4c2CCC4)CCC3)n1 [Example 37, N-((8-Cyano-1,2,3,5,6,7-hexahydro-s-indacen-4-yl)carbamoyl)-1-isopropyl-1H-pyrazole-3-sulfonamide] | 0.25 to 0.5 µM |
| CC(C)n1ccc(S(=O)(=O)NC(=O)Nc2c3c(c(Br)c4c2CCC4)CCC3)n1 [Example 38, N-((8-Bromo-1,2,3,5,6,7-hexahydro-s-indacen-4-yl)carbamoyl)-1-isopropyl-1H-pyrazole-3-sulfonamide] | < 0.25 µM |
| CC(C)c1cccc(C(C)C)c1NC(=O)NS(=O)(=O)c1cnn(CC(F)(F)F)c1 [Example 76, N-((2,6-Diisopropylphenyl)carbamoyl)-1-(2,2,2-trifluoroethyl)-1H-pyrazole-4-sulfonamide] | 5 to 10 µM |
| CC(C)(O)c1coc(S(=O)(=O)NC(=O)Cc2noc3ccccc23)c1 [Example 90, 2-(Benzo[d]isoxazol-3-yl)-N-((4-(2-hydroxypropan-2-yl)furan-2-yl)sulfonyl)acetamide] | 1 to 5 µM |
| CC(O)c1cc(S(=O)(=O)NC(=O)Nc2c3c(cc4c2CCC4)CCC3)nn1C (centres unmarked) [Example 74, N-((1,2,3,5,6,7-Hexahydro-s-indacen-4-yl)carbamoyl)-5-(1-hydroxyethyl)-1-methyl-1H-pyrazole-3-sulfonamide] | 0.5 to 1 µM |
| COc1cc(-c2cc(F)cc(C(C)C)c2CCC(=O)NS(=O)(=O)c2ccc(CN(C)C)cc2)ccn1 [Example 4, N-((4-((Dimethylamino)methyl)phenyl)sulfonyl)-3-(4-fluoro-2-isopropyl-6-(2-methoxypyridin-4-yl)phenyl)propanamide, potassium salt] | 5 to 10 µM |
| CC(C)(C)OC(=O)NC/C(=C\F)COc1ccc(S(=O)(=O)NC(=O)Nc2c3c(cc4c2CCC4)CCC3)cc1 [Example 18, tert-Butyl-(3-fluoro-2-((4-(N-((1,2,3,5,6,7-hexahydro-s-indacen-4-yl)carbamoyl)sulfamoyl)phenoxy)methyl)allyl)carbamate, potassium salt] | 1 to 5 µM |
| CC(C)(O)c1coc(S(=O)(=O)NC(=O)Cc2cc(Cl)cc(OC(F)(F)F)c2)c1 [Example 91, 2-(3-Chloro-5-(trifluoromethoxy)phenyl)-N-((4-(2-hydroxypropan-2-yl)furan-2-yl)sulfonyl)acetamide] | 1 to 5 µM |
| CC(C)c1cccc(O[C@H]2CCOC2)c1NC(=O)NS(=O)(=O)c1ccn(C(C)C)n1 [Example 86, (S)-1-Isopropyl-N-((2-isopropyl-6-((tetrahydrofuran-3-yl)oxy)phenyl)carbamoyl)-1H-pyrazole-3-sulfonamide] | 1 to 5 µM |
| CC(C)c1cc(C#N)cc(C(C)C)c1NC(=O)NS(=O)(=O)c1cnn(C(C)C)c1 [Example 75, N-((4-Cyano-2,6-diisopropylphenyl)carbamoyl)-1-isopropyl-1H-pyrazole-4-sulfonamide] | 1 to 5 µM |
| Cc1cc(C(C)(C)O)ccc1S(=O)(=O)NC(=O)C1CC(C)(C)c2cc(F)cc(C(C)C)c21 (centres unmarked) [Example 1, 5-Fluoro-N-((4-(2-hydroxypropan-2-yl)-2-methylphenyl)sulfonyl)-7-isopropyl-3,3-dimethyl-2,3-dihydro-1H-indene-1-carboxamide] | 5 to 10 µM |
| CC(C)c1cc(F)cc(C(F)(F)F)c1NC(=O)NS(=O)(=O)c1ccn(C(C)C)n1 [Example 70, N-((4-Fluoro-2-isopropyl-6-(trifluoromethyl)phenyl)carbamoyl)-1-isopropyl-1H-pyrazole-3-sulfonamide] | 5 to 10 µM |
| COc1cc(-c2ccc3c(c2CC(=O)NS(=N)(=O)C2CN(C(C)C)C2)CCC3)ccn1 (centres unmarked) [Example 25, N-(1-Isopropylazetidine-3-sulfonimidoyl)-2-(5-(2-methoxypyridin-4-yl)-2,3-dihydro-1H-inden-4-yl)acetamide] | 5 to 10 µM |
| CC(C)c1cc(F)cc2c1C(C(=O)NS(=O)(=O)c1cc(C(C)(C)O)cs1)CC2(C)C (single isomer, unassigned) [Example 9, 5-Fluoro-N-((4-(2-hydroxypropan-2-yl)thiophen-2-yl)sulfonyl)-7-isopropyl-3,3-dimethyl-2,3-dihydro-1H-indene-1-carboxamide, potassium salt (rotamer P2)] | 5 to 10 µM |
| CC(C)(O)c1coc(S(=O)(=O)NC(=O)Cc2cc(C(F)(F)F)cc(C(F)(F)F)c2)c1 [Example 98, 2-(3,5-bis(Trifluoromethyl)phenyl)-N-((4-(2-hydroxy-propan-2-yl)furan-2-yl)sulfonyl)acetamide] | 1 to 5 µM |
| CC(C)c1cc(F)cc(C(C)C)c1CC(=O)NS(=O)(=O)c1ncc(C(C)(C)O)s1 [Example 30, 2-(4-Fluoro-2,6-diisopropylphenyl)-N-((5-(2-hydroxypropan-2-yl)thiazol-2-yl)sulfonyl)acetamide] | 1 to 5 µM |
| CCOC(=O)c1cc(S(=O)(=O)NC(=O)Nc2c3c(cc4c2CCC4)CCC3)nn1C [Example 79, Ethyl 3-(N-((1,2,3,5,6,7-hexahydro-s-indacen-4-yl)carbamoyl)sulfamoyl)-1-methyl-1H-pyrazole-5-carboxylate] | 0.5 to 1 µM |
| CC(C)(O)c1coc(S(=O)(=O)NC(=O)Cc2cccc(I)c2)c1 [Example 93, N-((4-(2-Hydroxypropan-2-yl)furan-2-yl)sulfonyl)-2-(3-iodophenyl)acetamide] | 5 to 10 µM |
| COc1cc(-c2ccc3c(c2NC(=O)NCc2nnn[nH]2)CCC3)ccn1 [Example 88, 1((1H-Tetrazol-5-yl)methyl)-3-(5-(2-methoxypyridin-4-yl)-2,3-dihydro-1H-inden-4-yl)urea] | 5 to 10 µM |
| Cc1nn(C(C)C)cc1S(=O)(=O)NC(=O)Nc1c2c(cc3c1CCC3)CCC2 [Example 43, N-((1,2,3,5,6,7-Hexahydro-s-indacen-4-yl)carbamoyl)-1-isopropyl-3-methyl-1H-pyrazole-4-sulfonamide, sodium salt] | 0.25 to 0.5 µM |
| CC(C)c1cccc(O[C@@H]2CCOC2)c1NC(=O)NS(=O)(=O)c1ccn(C(C)C)n1 [Example 85, (R)-1-Isopropyl-N-((2-isopropyl-6-((tetrahydrofuran-3-yl)oxy)phenyl)carbamoyl)-1H-pyrazole-3-sulfonamide] | 5 to 10 µM |
| COc1cc(-c2cc(F)cc(C(C)C)c2CC(=O)Nc2ncco2)ccn1 [Example 95, 2-(4-Fluoro-2-isopropyl-6-(2-methoxypyridin-4-yl)phenyl)-N-(oxazol-2-yl)acetamide] | 5 to 10 µM |
| O=C(Nc1c2c(cc3c1CCC3)CCC2)NS(=O)(=O)c1cnn(CC2CC2)c1 [Example 44, 1-(Cyclopropylmethyl)-N-((1,2,3,5,6,7-hexahydro-s-indacen-4-yl)carbamoyl)-1H-pyrazole-4-sulfonamide, sodium salt] | < 0.25 µM |
| CC(C)c1cc(F)cc(C(C)C)c1NC(=O)NS(=O)(=O)c1ccn(CC(F)(F)F)n1 [Example 78, N-((4-Fluoro-2,6-diisopropylphenyl)carbamoyl)-1-(2,2,2-trifluoroethyl)-1H-pyrazole-3-sulfonamide, sodium salt] | 1 to 5 µM |
| CC(C)c1cc(F)cc(C(C)C)c1NC(=O)NS(=O)(=O)c1cc(C(C)(C)O)n(C(C)C)n1 [Example 50, N-((4-Fluoro-2,6-diisopropylphenyl)carbamoyl)-5-(2-hydroxypropan-2-yl)-1-isopropyl-1H-pyrazole-3-sulfonamide] | 0.25 to 0.5 µM |
